As usually defined, the EC50 is the midpoint of the concentration-response curve. What is called IC50 is the concentration that inhibits the measured activity by half. Higher therefore signals weaker potency in that assay.

The source made the active and inactive calls.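 How the source made its calls: active means compounds giving half or more protection of infected cells from virus-caused growth loss, again on retest; inactive means the rest.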

The subject of this test is CEM cells HIV-1 protection, formazan growth assay. Description: NCI AIDS Antiviral Assay. The settings on record: for IC50: measured here: growth of uninfected CEM cells. Here is the method: The ability of compounds to protect human CEM cells from HIV-1 infection is measured as a screen for new compounds capable of inhibiting the HIV virus. Five concentrations of drug were tested on uninfected and infected cells and cell growth was measured using a soluble formazan assay. […] Compounds that provided at least 50% protection were retested. Compounds that provided at least 50% protection on retest were listed as moderately active. Compounds that reproducibly provided 100% protection were listed as confirmed active. […] Note that the inability to provide protection could be due to toxicity.

On to `CCOC(=O)C(=O)Nc1cccc(Cl)c1C`, for which the EC50 is more than 741 µM and the IC50 was more than 741 µM.
`NC1NCCC(=O)N1CCc1c[nH]c2ccccc12` (stereo not given): the EC50 was more than 200 µM and the half-inhibitory concentration (IC50) turned out to be 36.3 µM.
Consider `CC(C)=CCOC(=O)C(C)=[N+]=[N-]`, for which the EC50 was more than 200 µM and the IC50 is 170 µM.
For the compound `Cc1ccc(C)c(NC(=O)CCC(=O)CC(=O)C(C)(C)C)c1`, the result was inactive.
As for `Cn1cc(NC(=O)Nc2cc(C(=O)Nc3cc(C(=O)Nc4ccc(S(=O)(=O)O)c5cc(S(=O)(=O)O)ccc45)n(C)c3)n(C)c2)cc1C(=O)Nc1cc(C(=O)Nc2ccc(S(=O)(=O)O)c3cc(S(=O)(=O)O)ccc23)n(C)c1`, the EC50 was 12.3 µM and the IC50 worked out at 61.7 µM.
In the case of `CC/C=C1\N=C(c2ccc(Cl)cc2)OC1=O`, the EC50 is more than 151 µM and the half-maximal inhibitory concentration (IC50) came out at 126 µM.
Consider `CCCCC1N=CNc2c1ccc1c2[nH]c2ccccc21` (stereo not given), for which the EC50 was more than 25.7 µM and the IC50 came out at 6.17 µM.
Taken in the same sequence, the figures for `OCCN(CCO)c1ccc2ccc(N(CCO)CCO)nc2n1` were more than 200 µM and 25.7 µM.
Taken in the same sequence, the figures for `CC12CCC(O)CC1=CCC1C2CCC2(C)C3=NN=CC3CC12` (stereo not given) were more than 200 µM and 12 µM.
In the case of `COc1ccc2c(c1)CCCN1CCc3ccccc3C21` (stereo not given), the EC50 was more than 200 µM and the IC50 turned out to be 110 µM.
Taken in the same sequence, the figures for `NNC(=O)CC(=O)Nc1ccc(S(=O)(=O)c2ccc(NC(=O)CC(=O)NN)cc2)cc1` were more than 200 µM and more than 200 µM.
Consider `C[C@H](NC(=O)OC1C2C=CC(O)C1CC2)c1ccccc1` (stereo not given in full), for which the EC50 was more than 871 µM and the IC50 stood at 776 µM.
For the compound `Cc1nc2ccccc2c(=O)n1NC(=S)Nc1ccccc1`, the EC50 is more than 115 µM and the half-inhibitory concentration (IC50) is 107 µM.
Turning to `CCC1(CC)COP(=O)(Oc2ccccc2)OC1`, the EC50 is more than 200 µM and the IC50 was more than 200 µM.
For the compound `Cc1ccccc1C(O)(c1nccn1C)c1nccn1C`, the EC50 is more than 200 µM and the IC50 was more than 200 µM.
With `Cc1nc(Nc2ccc([N+](=O)[O-])cc2)sc1C(/C=C/c1ccc(N(C)C)cc1)=N/NC(=O)c1ccccc1`, the EC50 is more than 13.8 µM and the IC50 was more than 13.8 µM.
Regarding `CCNC12CCC(C1)C(C)(C)C2=O` (stereo not given), the EC50 was more than 200 µM and the IC50 is more than 200 µM.
With `O=S(=O)(O)CN(CCN(CS(=O)(=O)O)CS(=O)(=O)O)CS(=O)(=O)O`, the EC50 is more than 200 µM and the concentration for half-maximal inhibition (IC50) was 20.4 µM.
With `N#CC(F)(F)C(F)(F)C(F)(F)C(F)(F)C(F)(F)C(F)(F)C(F)(F)F`, the EC50 was more than 200 µM and the IC50 is more than 200 µM.
In the case of `C/C(=C\C(=O)OCCCCCCCC(=O)NC1CCCNC1=O)C[C@@H]1OC[C@H](C/C=C/[C@@H](C)[C@H](C)O)[C@@H](O)[C@H]1O` (stereo not given in full), the outcome was inactive.
As to `CCN(CC)CC(=O)Nc1cc(NC(=O)CN(CC)CC)c(C)c(NC(=O)CN(CC)CC)c1`, the EC50 was more than 200 µM and the IC50 was determined as 56.2 µM.
Consider `CN(NC(=O)c1cccs1)C1=NCCCCN1`, for which the EC50 is more than 200 µM and the concentration for half-maximal inhibition (IC50) was more than 200 µM.
Turning to `O=c1[nH]c(=O)n(C2OC(CO)C(O)C(F)C2O)cc1F` (stereo not given), the EC50 was 186 µM and the IC50 was more than 200 µM.
Turning to `C[C@]1(O)CC[C@H]2[C@@H]3CC[C@H]4C[C@H](O)[C@@H]5C[C@]4(CO5)[C@H]3CC[C@@]21C`, the EC50 was more than 110 µM and the IC50 was more than 110 µM.
Consider `NNC(=O)c1cc(=O)[nH][nH]1`, for which the EC50 is more than 200 µM and the IC50 was more than 200 µM.
`COC1C=CC23c4cc5c(cc4C(O)OC2CN(C)C3C1)OCO5` (stereo not given): the EC50 was more than 200 µM and the 50% inhibitory concentration (IC50) was found to be 0.891 µM.
Take `CN(C)c1ccc(/C=C(\C#N)c2ccccc2Br)cc1`: the EC50 was more than 40.7 µM and the IC50 was determined as 3.98 µM.
In the same order, the values of `COC(=O)CC1C(COC(C)=O)OC(n2ccc(=O)[nH]c2=O)C1OC(C)=O` (stereo not given) are 0.537 µM and more than 200 µM.
On to `CCN(CC)CCOc1ccc(/C(C#N)=C/c2ccccc2OCCN(CC)CC)cc1`, for which the EC50 is more than 200 µM and the IC50 amounted to 2.63 µM.
`CCCn1c(SC)nc(COC(=O)NC)c1COC(=O)NC`: the EC50 is more than 200 µM and the IC50 is more than 200 µM.
`c1ccc2c(c1)oc1cc3c(cc12)n1nnnc1c1cccn31`: the EC50 was more than 200 µM and the half-inhibitory concentration (IC50) was more than 200 µM.
On to `O=C1C(c2c[nH]c3ccccc23)=Nc2ccc(Br)cc21`, for which the EC50 is more than 20 µM and the 50% inhibitory concentration (IC50) stood at 5.89 µM.
For `CC1CCCC(C(=O)CC2CC(=O)NC(=O)C2)C1=O` (stereo not given), the EC50 is more than 200 µM and the IC50 is more than 200 µM.
Turning to `COc1ccccc1OCC(Cn1c(=O)nc(-c2ccccc2)c2cc(Cl)ccc21)OC(N)=O` (stereo not given), the EC50 is more than 28.2 µM and the IC50 was more than 28.2 µM.
In the case of `N/C(=N\N=C/c1c(O)cc(O)cc1O)NO`, the outcome was inactive.
Turning to `O=c1/c(=C\C=C\c2ccccc2)sc2n1CCN=2`, the outcome was inactive.
Turning to `O=C(Nc1ccc(C2=NCCN2)cc1)c1ccc(C(=O)Nc2ccc(C3=NCCN3)cc2)c(F)c1`, the EC50 was 120 µM and the concentration for half-maximal inhibition (IC50) was more than 200 µM.
Regarding `CC(=O)NC1=C(C)C(=O)c2c(nc3n2CCC3O)C1=N` (stereo not given), the EC50 is more than 200 µM and the IC50 was 24 µM.
Turning to `O=C(O)C(Cc1ccccc1)N1C(=O)N/C(=C\c2ccc(F)cc2)C1=O` (stereo not given), the result was inactive.
For the compound `CCOC(=O)c1cccc2c(Nc3ccc(S(=O)(=O)Nc4cc(C)on4)cc3)c3ccccc3nc12`, the EC50 is more than 200 µM and the IC50 amounted to 25.1 µM.
As to `CCOc1ccccc1N=NC1C(=O)N(C(=O)CC(=O)Nc2ccccc2C)N=C1C` (stereo not given), the EC50 is more than 200 µM and the IC50 is more than 200 µM.
For `C/C(=N/NC(=S)Nc1ccc([N+](=O)[O-])cc1)c1cccc(/C(C)=N\NC(=S)Nc2ccc([N+](=O)[O-])cc2)n1`, the EC50 was more than 200 µM and the IC50 amounted to 0.479 µM.
Consider `COc1ccc(NC(=S)N/N=C(/C)c2ccccn2)cc1`, for which the EC50 is more than 0.2 µM and the IC50 stood at 0.115 µM.
For the compound `CCOC(=O)c1nc2ccc(C(F)(F)F)cc2nc1NCc1ccc(F)cc1`, the EC50 is more than 200 µM and the IC50 worked out at 23.4 µM.
On to `[N-]=[N+]=Nc1c(Cl)c(=O)n(-c2ccccc2)c2ccccc12`, for which the EC50 was more than 200 µM and the IC50 was 29.5 µM.
Take `CC(=O)OCC1OC(n2c(Br)nc3c2c(=O)n(C)c(=O)n3C)C(OC(C)=O)C1OC(C)=O` (stereo not given): the EC50 was more than 200 µM and the IC50 was determined as 69.2 µM.
For the compound `[Cu+2].[O-]/C(=N\N=C/c1cccc(C(F)(F)F)c1)c1ccncc1.[O-]/C(=N\N=C\c1cccc(C(F)(F)F)c1)c1ccncc1`, the EC50 is more than 100 µM and the IC50 stood at 5.62 µM.
Regarding `CCC(C)(C)NS(=O)(=O)c1ccccc1`, the outcome was inactive.
Turning to `CCCCCCCCCCCCCCCCCCSCC(COP(=O)(O)OP(=O)(O)O)OC(=O)CCCCCCCCCCCCCCC` (stereo not given), the EC50 is more than 0.891 µM and the IC50 was more than 0.891 µM.
For `COC(=O)C(Cc1c[nH]c2ccccc12)NC(=O)C(Cc1c[nH]c2ccccc12)NC(=O)OCc1ccccc1` (stereo not given), the result was inactive.
For `COc1ccc2c(c1)OC(C)(C)C1c3c(cc(OC)c(O)c3C)OC21` (stereo not given), the EC50 is more than 200 µM and the IC50 was 9.33 µM.
Taken in the same sequence, the figures for `Cc1cccc2c1C(=O)C1(Cc3ccccc3C1=O)C2` (stereo not given) were more than 200 µM and more than 200 µM.
With `Cc1ccc(S(=O)(=O)SC(SCC(=O)c2ccc(Br)cc2)C(=O)c2ccc(Br)cc2)cc1` (stereo not given), the EC50 is more than 40.7 µM and the concentration for half-maximal inhibition (IC50) was 38.9 µM.
On to `Cc1ccc(S(=O)(=O)CNC(=O)C(O)(O)C(F)(F)F)cc1`, for which the EC50 was more than 200 µM and the IC50 is more than 200 µM.
For `CC(C)(C)OC(=O)N1CCc2c(n(C/C=C/c3ccccc3)[nH]c2=O)C1`, the EC50 is more than 200 µM and the IC50 was 19.1 µM.
Taken in the same sequence, the figures for `O=c1[nH]nc(-c2ccccc2)n1/N=C/c1ccccc1O` were more than 200 µM and 115 µM.
Turning to `O=C(OCC(OC(=O)c1ccccc1)C1CC(C2(O)CCCCC2)C(=O)O1)c1ccccc1` (stereo not given), the EC50 was more than 50.1 µM and the IC50 is more than 50.1 µM.
For the compound `COc1ccccc1C1SCc2nc3ccccc3n21` (stereo not given), the EC50 was more than 91.2 µM and the 50% inhibitory concentration (IC50) turned out to be 36.3 µM.
As to `Cc1cn(COCCN2C(=O)c3ccccc3C2=O)c(=O)[nH]c1=O`, the EC50 was more than 200 µM and the half-maximal inhibitory concentration (IC50) was more than 200 µM.
Regarding `O=C(CC(O)(C(F)(F)F)C(F)(F)F)C(CCCl)C(O)(C(F)(F)F)C(F)(F)F` (stereo not given), the EC50 is more than 200 µM and the 50% inhibitory concentration (IC50) stood at 33.1 µM.
In the case of `C[C@]12CC[C@H](OS(=O)(=O)O)CC1CCC1C2CC[C@@]2(C)C1CC[C@@H]2CO` (stereo not given in full), the EC50 is more than 60.3 µM and the IC50 is more than 60.3 µM.
With `CC[N+]1(C)CCC(O)(c2ccc(C)cc2)C(C(=O)c2ccc(C)cc2)C1` (stereo not given), the EC50 is more than 200 µM.
For `Cc1cccc(/C=C(\C#N)C(=O)c2ccccc2)c1`, the EC50 is more than 363 µM and the IC50 amounted to 178 µM.
In the case of `COC(=O)CCCc1ccc2c(c1)CCC2`, the EC50 is more than 200 µM and the IC50 was more than 200 µM.
In the case of `COC(=O)C1=C(O)C(C(=O)OC)C2(C3CC=CC3)C(C(=O)OC)=C(O)C(C(=O)OC)C12` (stereo not given), the EC50 is more than 214 µM and the IC50 is more than 214 µM.
As to `O=Cc1c2ccccc2n2ccc3c4ccccc4[nH]c3c12`, the EC50 was more than 200 µM and the IC50 was more than 200 µM.
For `C[C@@H](O)CCC(=O)c1ccoc1`, the EC50 is more than 1480 µM and the IC50 was more than 1480 µM.
With `CN(C)C1C(=O)C(C(N)=O)=C(O)C2(O)C(=O)C3=C(O)c4c(O)cccc4C(C)(O)C3CC12.[Cl][Sb]([Cl])[Cl]` (stereo not given), the EC50 was more than 200 µM and the IC50 came to 35.5 µM.
Taken in the same sequence, the figures for `Cc1ccccc1NC(=O)CSc1nnc(-c2ccc(N=Cc3ccc(Cl)cc3)cc2)o1` were more than 389 µM and 5.62 µM.

For the origin of these results see PubChem BioAssay AID179 (DTP/NCI, 2004).
